Data: patent US20070142462A1, “Method of Treating Cancer” (The University of Utah, priority 2000, published 2007)

Tests used:
Format in all cases: cell-based, human
[1] = test system: GRO-α; test: GRO-α ELISA in culture medium; details: M1619; dicumarol 24 hours
Procedure: To study the impact of inhibiting NF-κB activation with antioxidants, cellular expression of the autocrine growth factor GRO-α was studied in near confluent monolayers of M1619 cells grown in 24-well plates. Cells were either treated with fresh complete medium or fresh medium containing 25 μM ebselen. After 24 hours, supernatants were harvested, microcentrifuged to remove cellular debris and frozen at −20° C. until GRO-α measurement as outlined below.
Measurement of GRO-α Expression. GRO-α was measured in culture medium from untreated and ebselen treated cells using a commercial ELISA purchased from R&D Systems, Minneapolis, Minn. This assay could not be used to detect GRO-α production by catalase treated cells because of interference in the peroxidase-based ELISA by catalase in the cell supernatant.
[…]. After 24 hours, GRO-α concentration was measured in media.

[2] = test system: M1619 cells; test: Ferricytochrome c reduction (O2− generation) by M1619 cells; details: 160 μM ferricytochrome c; capsaicin 100 μM; dicumarol 250 μM pre-treatment 60 min; other inhibitors as
Procedure: Measurement of Reactive Oxygen Species. Superoxide (O2^−) generation was measured by the technique of superoxide dismutase (SOD) inhibitable reduction of ferricytochrome c, employing a modification allowing absorbance reading with an automatic enzyme immunoassay reader. See Friovich, I. in Handbook of Methods for Oxygen Radical Research (Greenwald, R. A., ed.), pp 121-122, CRC Press, Boca Raton, Fla., 1985; Pick, E. et al. J. Immunol. Methods 46:211-226 (1981). Confluent cells grown on 24-well plates were washed with DPBS, and incubated in 5% CO2/air at 37° C. with 160 μM ferricytochrome c in total volume of 550 μl of sodium bicarbonate-containing Krebs-Heinseleit buffer, or Hanks Balanced Salt Solution (HBSS), with and without copper-zinc SOD (1,000 units/ml). See Nozik-Grayck, et al., Am J. Physiol. 273 (17):L296-L304 (1997). The absorbance of each well was measured at 550 nm initially and 3-24 hours later using an ELx800 UV automated microplate reader (Biotek Instruments, Highland Park, Vt.). Monolayers were then washed with DPBS, and cell protein was measured using the BCA protein assay (Pierce). O2^− generation, normalized to cell protein, was computed from the Beer-Lambert relationship, as the quotient of SOD-inhibitable increase absorbance over time divided by the difference between the molar extinction coefficients for ferricytochrome c and ferrocytochrome c (ΔEM=2.1×10^4 M^−1 cm^−1). See Bashford, in Spectrophotometry & Spectrofluorimetry. A Practical Approach (Harris, D. A., and Bashford, C. L., eds) pp. 1-22, IRL Press, Washington, D.C., 1987; Friovich, I. in Handbook of Methods for Oxygen Radical Research (Greenwald, R. A., ed) pp 121-122, CRC Press, Boca Raton, Fla., 1985. […].
A. Capsaicin inhibits ferricytochrome c reduction. M1619 cells grown on 24-well plates were washed with DPBS, and incubated in 5% CO2/air at 37° C. with 160 μM ferricytochrome c in total volume of 550 μl of HBSS with or without the quinone analog capsaicin (100 μM final concentration) added in 5 μl/ml of ethanol. The absorbance of each well was measured at 550 nm initially and 3 hours later using an ELx800 UV automated microplate reader (Biotek Instruments, Highland Park, Vt.). The results are illustrated in FIG. 8A.
. […]. The results are illustrated in FIG. 9A.

[3] = test system: p65 component of NF-κB; test: Immunohistochemical localization of p65 in M1619 cells; details: 24 hours, catalase 3,000 U/ml, apocynin 150 μg/ml, dicumarol 250 μM
Procedure: The effect of antioxidants on nuclear activation of NF-κB was studied by incubating near confluent (70%) cell cultures with antioxidant treatments for 1-48 hours. Nuclear protein was harvested, and EMSAs were performed using DNA consensus binding sequences, or nuclear translocation of the p65 component of NF-κB was studied by immunoperoxidase staining, as outlined below.
Immunohistochemical Localization of NF-κB. Cells grown on sterile coverslips and treated with catalase 3,000 U/ml, apocynin 150 μg/ml, or DPBS or DMSO vehicles for 24 h were fixed for 20 min on ice with 4% paraformaldehyde in DPBS with protease inhibitors, PI [Sigma protease inhibitor cocktail, 10 μl/ml, containing 4-(2-aminoethyl)benzensulfonyl fluoride (AEBSF), pepstatin A, trans-epoxysuccinyl-L-leucylamindo-(guanidino)butane (E-64), bestatin, leupeptin and aprotinin]. Cells were permeabilized by treating for 2 min with 0.1% NP-40 in DPBS/PI, washed once with cold DPBS and fixed as before for 10 min. Coverslips were incubated in 3% hydrogen peroxide for 30 min to suppress any remaining peroxidase, and washed three times in cold DPBS. The permeabilized and fixed cells were blocked for 2 hours with 2% BSA in DPBS on ice and incubated overnight at 4° C. with 1 μg/ml of anti-p65 antibody (Santa Cruz) diluted in 0.1% BSA/DPBS. Unbound anti-p65 was washed away with 2% BSA/DPBS and bound antibody was stained by incubation with biotinylated goat anti-rabbit immunoglobulin diluted 1:50 in 0.1% BSA/DPBS for 45 min on ice. Excess secondary antibody was washed away by 3 washes with 2% BSA/DPBS on ice. After washing, the cells were incubated with a streptavidin-biotin-peroxidase complex at room temperature for 1 hr, washed again, and incubated in 0.03% wt/vol 3-3′diaminobenzidine with 0.003% vol/vol hydrogen peroxide until a brown reaction product could be seen. Cells were then counterstained with eosin and mounted on glass slides before viewing under light microscopy. […]

[4] = test system: Adeno-squamous lung carcinoma NCI-H596 cells; test: MTT proliferation assay, NCI-H596 lung carcinoma; details: Homo sapiens, NCI-H596; Ebselen 25 μM; 10% FBS; 48 hours; mean±SE vs FBS+DMSO control; read-out: Percent Growth Inhibition
Procedure: (§1) Measurement of Proliferation in Cell Cultures. […] This assay empirically distinguishes between dead and living cells.
(§2) Cell Culture Treatments. The effect of antioxidant treatments on proliferation of malignant cell lines was studied in cultures stimulated with 10% FBS. Cell numbers were quantitated by the MTT assay 24-72 hours later. In some experiments, antioxidants were added immediately after cells were plated. In other experiments, cells were plated and allowed to grow for 24 hours before fresh media with antioxidants was added, and cell numbers were studied by the MTT assay 48 hours later.
(§3) Cells stimulated with 10% FBS were plated at a density of 50,000 cells per well. DMSO and antioxidants were added to cell wells at the indicated concentrations. […] Each value represents a mean of at least 4 experiments.

[5] = test system: Melanoma M1585 cells; test: MTT proliferation assay, M1585 melanoma; details: Homo sapiens; Ebselen 25 μM; 10% FBS; 48 hours; mean±SE vs FBS+DMSO control; read-out: Percent Growth Inhibition
Procedure: as §1, §2, §3

[6] = test system: breast carcinoma MDA-MB-453 cells; test: MTT proliferation assay, MDA-MB-453 breast carcinoma; details: Homo sapiens, MDA-MB-453; Ebselen 25 μM; 10% FBS; 72 hours; mean±SE vs FBS+DMSO control; read-out: Percent Growth Inhibition
Procedure: as §1, §2, §3

[7] = test system: M1619 melanoma cells; test: MTT proliferation assay, M1619 melanoma; details: for Proliferation of M1619 melanoma cells (MTT, A540): 10% FBS, agents added at plating, 48 hours (ebselen 72 hours)
Procedure: Measurement of Proliferation in Cell Cultures. Proliferation of cultured cells was quantitated using a previously reported calorimetric method based upon metabolic reduction of the soluble yellow tetrazolium dye 3-[4,5-dimethylthiazol]-2yl-2,5-diphenyl tetrazolium bromide (MTT) to its insoluble purple formazan by the action of mitochondrial succinyl dehydrogenase. […] This assay empirically distinguishes between dead and living cells. For proliferation studies, cells were seeded into 24-well uncoated plastic plates (Costar) at 15,000-50,000 cells per well and cultured with respective media and mitogens. After 24-96 hours, medium was removed, cells were washed twice with 1 ml of sterile Dulbecco's modified phosphate buffered saline without Ca^2+ or Mg^2+ (DPBS), the medium was replaced with 1 ml/well fresh medium containing 100 μg/ml MTT, and plates were incubated an additional hour. MTT-containing medium was removed, 0.5 ml dimethylsulfoxide (DMSO) was added to each well, and the absorbance of the solubilized purple formazan dye was measured at 540 nm. A total of 4-6 wells was studied at each treatment condition. Preliminary studies were performed with 50-200 μg/ml MTT incubated for 15 min to 3 hours to determine the optimum concentration and incubation time at which the rate of conversion was linear and proportional to the number of cells present.
as §2
A. M1619 melanoma cells stimulated with 10% fetal bovine serum (FBS) were plated at a density of 50,000 cells per well and antioxidants were added to wells at the indicated concentrations (mM or U/ml). After 48 hours, proliferation was quantitated by assessing the cell number-dependent reduction of the soluble yellow tetrazolium dye 3-[4,5-dimethylthiazol]-2yl-2,5-diphenyl tetrazolium bromide (MTT) to its insoluble formazan, measured as the absorbance at 540 nm (A540). The antioxidants tested included no antioxidant (control, i.e., FBS alone), 1000 U/ml SOD, 20 mM NAC, 500 U/ml, 1000 U/ml, and 3000 U/ml of catalase, and boiled […] catalase.
B. In a separate experiment, 2 μl/well of DMSO (served as control), 5 μM, 10 μM, and 25 μM Ebselen were tested on M1619 melanoma cells as described above, except that the cells were cultured for 72 hours before proliferation was measured.
C. 3000 U/ml Catalase, 2 μl/well DMSO, 25 μM Ebselen, and 50 μM Ebselen were tested as described above except that the compounds were added 24 hours after M1619 cells were plated. After the addition of antioxidants, the cells were incubated for an additional 48 hours and cell proliferation was quantitated. […]

[8] = test system: NF-κB; test: EMSA of constitutive nuclear NF-κB DNA binding, M1619; details: 24 hours, catalase 3,000 U/ml, NAC 20 mM, Ebselen 25 μM, dicumarol 250 μM
Text: Electrophoretic Mobility Shift Assays (EMSAs). […] J. Respir.

[9] = test system: LNCaP.FGC prostate adenocarcinoma cells; test: MTT proliferation assay, LNCaP.FGC prostate adenocarcinoma; details: Homo sapiens; Ebselen 25 μM; 10% FBS; 48 hours; mean±SE vs FBS+DMSO control; read-out: Percent Growth Inhibition
Procedure: as §1, §2, §3

Structure (SMILES) | ferricytochrome c reduction by M1619 cells [2] | Proliferation of M1619 melanoma cells (MTT, A540) [7] | other results
O=c1oc2ccccc2c(O)c1Cc1c(O)c2ccccc2oc1=O [Dicumarol, 3,3′-methylenebis[4-hydroxy-2H-1-benzopyran-2-one]] | significantly decreased |  | GRO-α protein expression [1]: dramatic reduction; anti-p65 staining in nuclei (nuclear translocation of NF-κB) [3]: little staining in nuclei
O=c1c2ccccc2[se]n1-c1ccccc1 [Ebselen, 2-phenyl-1,2-benzisoselenazol-3(2H)-one] |  | dramatically reduced | inhibition at 25 µM [4]: 57 ± 2%; inhibition at 25 µM [5]: 94 ± 2%; inhibition at 25 µM [6]: 69 ± 4%; Proliferation of M1619 melanoma cells, agents added 24 hours after plating ([7]; catalase 3000 U/ml, Ebselen 25 and 50 μM, further 48 hours): antiproliferative; constitutive NF-κB DNA binding activity in nuclear protein [8]: substantially reduced; inhibition at 25 µM [9]: 100%
CC(=O)N[C@@H](CS)C(=O)O [N-acetylcysteine] |  | reduced proliferation | 
Oc1ncnc2[nH]ncc12 [allopurinol] | Neither cellular reduction of ferricytochrome c nor proliferation were reduced | Neither cellular reduction of ferricytochrome c nor proliferation were reduced | 
COc1cc(C(C)=O)ccc1O [apocynin, 4′-hydroxy-3′-methoxy-acetophenone] |  | significantly reduced proliferation | anti-p65 staining in nuclei (nuclear translocation of NF-κB) [3]: little staining in nuclei
COc1cc(CNC(=O)CCCC/C=C/C(C)C)ccc1O [capsaicin, 8-methyl-N-vanillyl-6-noneamide] | significantly decreased | significantly reduced proliferation | 
CN/C(=N/CCSCc1nc[nH]c1C)NC#N [cimetidine] | Neither cellular reduction of ferricytochrome c nor proliferation were reduced | Neither cellular reduction of ferricytochrome c nor proliferation were reduced | 
c1ccc2c(c1)[I+]c1ccccc1-2 [diphenylene iodonium chloride] |  | significantly reduced proliferation | 
COc1ccc2c(c1)c(CC(=O)O)c(C)n2C(=O)c1ccc(Cl)cc1 [indomethacin] | Neither cellular reduction of ferricytochrome c nor proliferation were reduced | Neither cellular reduction of ferricytochrome c nor proliferation were reduced | 
C=C(C)[C@H]1Cc2c(ccc3c2O[C@@H]2COc4cc(OC)c(OC)cc4[C@@H]2C3=O)O1 [retenone] | Neither cellular reduction of ferricytochrome c nor proliferation were reduced | Neither cellular reduction of ferricytochrome c nor proliferation were reduced | 
N=C(NCCC[C@H](N)C(=O)O)N[N+](=O)[O-] [ω-nitro-L-arginine, Nω-nitro-L-arginine] | Neither cellular reduction of ferricytochrome c nor proliferation were reduced | Neither cellular reduction of ferricytochrome c nor proliferation were reduced | 
